Read-outs that look alike come from different tables or passages of the source.
System: calcium channels
Type: cell-based, rats
Conditions: read-out: IC50 for blocking calcium channels, pH 7.4

Row | Compound | IC50 | IC50 (cerebellar granule cells from 8 day old rats, fura2 fluorescence, 37° C.)
1 | COc1ccc(CCN(C)CCCC(C#N)(c2ccc(OC)c(OC)c2)C(C)C)cc1OC (centres unmarked) [Verapamil] | 4.8 µM | 
2 | H2 N-Glu-Ala-Cys-Ala-Gly-Ala-Tyr-Lys-Ser-Cys-Asp-Lys-Val-Lys-Cys-Cys-His-Asp- Arg-Arg-Cys-Arg-Cys-Asn-lle-Ala-Met-Asp-Asn-Cys-Val-Cys-Lys-Leu-Phe-Tyr-Cys-Glu-Leu-Phe-Gly-Thr-Cys-Asp-Arg-Leu-Lys-Pro [peptide J2] |  | < 0.2 µM

— patent US5599559A, “Calcium channel blocking polypeptide from agelenopsis aperta and therapeutic methods employing it” (priority 1995, dated 1997)
